Measurements from patent US12546780B2, “Method for identifying ubiquitin and ubiquitin-like enzyme activities” (CENTRE NATIONAL DE LA RECHERCHE SCIENTIFIQUE, priority 2019, dated 2026).

Assays:
[1] = test system: UBC12 protein NEDDylation; assay: Bead method: NEDD8 level on UBC12 beads with HL60 cell extracts; type: cell-based; conditions: HL60 cells, 1 μM, 6 h
Procedure: HL60 cells were first treated with 1 μM of MLN4924, DMSO, or only with the culture medium for 6 h. Beads supporting UBC12, (NEDDylation E2 enzyme, which was previously reported to be modified by NEDD8) were contacted with said cell extracts, and NEDD8 level was assessed.
(§1) Cells grown at a 5-8.10^5/mL density were spun down (300 g) at 4° C. for 5 min and washed once with PBS. After pellet resuspension in 1 mL of PBS, they were centrifuged again (16,000 g) at 4° C. for 5 min. Pellets were resuspended and incubated at 4° C. for 30 min in a hypotonic buffer (20 mM HEPES pH 7.5, 1.5 mM MgCl2, 5 mM KCl, 1 mM DTT and 1 mg/L of aprotinine, leupeptin and pepstatin) in a volume of 25 μL per 2.10^6 cells. Cell lysis was achieved through 4 freezing/thawing cycles using liquid nitrogen and DNA was sheared owing to 10 passages through a 20-1/2 G needle. Extracts were finally centrifuged twice (16000 g) at 4° C. for 20 min and supernatants were aliquoted, flash-frozen and kept at −80° C. until use. […]
(§2) SUMO-1-, SUMO-2-, NEDD8 and Ubiquitin vinyl sulfones (0.5 μM each) were added to cellular extracts (10 μL), which were incubated at 4° C. for 15 min. […] They were then resuspended in 200 μL PBS and flow-cytometry-analysed using the LSR Fortessa device from BD Biosciences. Results were analysed using the FlowJow software.

[2] = test system: SUMOylation activity on ZMYM5 protein; assay: Bead method: SUMOylation activity on ZMYM5 with HL60 cell extracts; type: cell-based; conditions: HL60 cells, 0-500 nM, 6 h; ZMYM5 beads
Procedure: ZMYM5 was used as a marker of SUMOylation, OTUD6B as a marker of NEDDylation, and TMEM92, BEAN and WBP2 as a marker of ubiquitinylation. […]
(§3) Cells grown at a 5-8.10^5/mL density were spun down (300 g) at 4° C. for 5 min and washed once with PBS. After pellet resuspension in 1 mL of PBS, they were centrifuged again (16,000 g) at 4° C. for 5 min. Pellets were resuspended and incubated at 4° C. for 30 min in a hypotonic buffer (20 mM HEPES pH 7.5, 1.5 mM MgCl2, 5 mM KCl, 1 mM DTT and 1 mg/L of aprotinine, leupeptin and pepstatin) in a volume of 25 μL per 2.10^6 cells. Cell lysis was achieved through 4 freezing/thawing cycles using liquid nitrogen and DNA was sheared owing to 10 passages through a 20-1/2 G needle. Extracts were finally centrifuged twice (16000 g) at 4° C. for 20 min and supernatants were aliquoted, flash-frozen and kept at −80° C. until use.
2.10^5 magnetic MagPlex XMap beads (low concentration) from Luminex were transferred to a low binding microtube (Eppendorf) and washed using 500 mM NaCl. […]
as §2

[3] = test system: NEDDylation of OTUD6B; assay: Bead method: NEDD8 addition on OTUD6B beads with HL60 cell extracts; type: cell-based; conditions: HL60 cells, 0-500 nM, 6 h
Procedure: FIG. 8 represents graphs evaluating Ubiquitin addition on beads coated with TMEM92 (1), BEAN1 (2), WBP2 (3) proteins, SUMO1 addition on beads coated with ZMYM5 (4) or NEDD8 addition on beads coated with OTUD6B (5). […] As control, cell extracts treated N-ethylmaleimide (NEM) are used (A).
ZMYM5 was used as a marker of SUMOylation, OTUD6B as a marker of NEDDylation, and TMEM92, BEAN and WBP2 as a marker of ubiquitinylation.
as §1, with “needle.” for “needle. Extracts were finally centrifuged twice (16000 g) at 4° C. for 20 min and supernatants were aliquoted, flash-frozen and kept at −80° C. until use.”
as §2

[4] = test system: SUMOylation activity; conditions: read-out: in vitro IC50 (SUMOylation); cited from earlier work
[5] = test system: ubiquitination activity (TMEM92, BEAN1, WBP2); assay: Bead method: ubiquitination activity on TMEM92, BEAN1 or WBP2 beads with HL60 cell extracts; type: cell-based; conditions: HL60 cells, 6 h
Procedure: Cells extracts were prepared and contacted with beads coated with either TMEM92, BEAN1 or WBP2 proteins.
as §3
2.10^5 magnetic MagPlex XMap beads (low concentration) from Luminex were transferred to a low binding microtube (Eppendorf) and washed using 500 mM NaCl. They were then resuspended in 50 μL of 50 mM MES pH 6.1 and incubated in the presence of 5 mg/mL 1-ethyl-3-(3-dimethylaminopropyl) carbodiimide hydrochloride (EDC, Pierce) and 5 mg/mL Sulfo-NHS (Pierce) at room temperature for 20 min. Beads were then washed in PBS containing 500 mM NaCl and incubated with 7 μg of recombinant protein to be coupled in 100 μL PBS at room temperature for 2 hrs. They were then washed twice with PBS containing 0.1% BSA, 0.02% Tween 20, 0.05% sodium azide and 500 mM NaCland stored at 4° C. in PBS containing 0.1% BSA, 0.02% Tween-20, 0.05% sodium azide.
as §2, with “min. Control extracts were also incubated with 50 mM NEM.” for “min.”

[6] = test system: NEDDylation (OTUD6B protein); conditions: read-out: in vitro IC50 (NEDDylation) on OTUD6B protein; cited from earlier work

Structure (SMILES) | UBC12 protein NEDDylation [1] | effect on SUMOylation activity [2] | effect on NEDDylation (OTUD6B beads) [3] | IC50 [4] [µM] | ubiquitination activity inhibited ([5]; 10 nM or more) | TMEM92 ubiquitination inhibition ([5]; 500 nM, TMEM92 beads) | WBP2 and BEAN1 ubiquitination remaining ([5]; 500 nM, WBP2 and BEAN1 beads) | IC50 [6] [µM]
NS(=O)(=O)OC[C@@H]1C[C@@H](n2ccc3c(N[C@H]4CCc5ccccc54)ncnc32)CC1O (some centres unmarked) [MLN4924] | decrease |  |  |  |  |  |  | 
NS(=O)(=O)OC[C@H]1C[C@@H](Nc2ccnc3cc(-c4cccc(SC(F)(F)F)c4)nn23)[C@H](O)[C@@H]1O [MLN7243] |  | affects SUMOylation activity, but with large amounts of inhibitor | a decrease slightly different | 0.85 | more than 50% | maximal | residual levels | 0.028
